Legend:
human PMN = assay: Inhibition of FMLP-stimulated production of superoxide radical anions; format: cell-based; settings: Neutrophil, human neutrophils; for IC50: 4×10^-8 M FMLP
Method: 1. Preparation of human PMN
Blood was taken from healthy subjects by venous puncture and neutrophils were purified by dextran sedimentation and resuspended in the buffered medium.
2. Inhibition of FMLP-stimulated production of superoxide radical anions.
Neutrophils (2.5×10^5 ml^-1) were mixed with cytochrome C (1.2 mg/ml) in the wells of a microtitre plate. Compounds according to the invention were added in dimethyl sulphoxide (DMSO). Compound concentration ranged from 2.5 nM to 10 μM, the DMSO concentration was 0.1% v/v in all wells. After addition of cytochalasin b (5 μg×ml^-1) the plate was incubated for 5 min at 37° C. Neutrophils were then stimulated by addition of 4×10^-8 M FMLP and superoxide generation measured as superoxide dismutase inhibitable reduction of cytochrome C by monitoring the OD550 in a Thermomax microtitre plate spectrophotometer. Initial rates were calculated using a Softmax kinetic calculation programme. Blank wells contained 200 units of superoxide dismutase.
The inhibition of superoxide production was calculated as follows: [formula] Rx=Rate of the well containing the compound according to the invention. Ro=Rate in the control well.
Rb=Rate in the superoxide dismutase containing blank well.

FMLP-induced skin oedema = assay: Effect of intravenously administered compounds on the FMLP-induced skin oedema guinea pigs; format: in vivo; settings: i.v., 1 mg/kg, guinea pig
Method: 5. Effect of intravenously administered compounds on the FMLP-induced skin oedema guinea pigs
Guinea pigs (600-800 g) were anaesthetized with pentobarbitone sodium (40 mg/kg, i.p.) and injected (i.v.) with a 0.5 ml mixture of pentamine sky blue (5% W/V) and ^125 I-HSA (1 μli/animal). 10 minutes later 3 intradermal injections of FMLP (10 μg/site), 1 injection of histamine (1 μg/site) and 1 injection of vehicle (100 μl of 0.2% DMSO V/V in Hanks Buffered salt solution) were made on the left hand side of the animal (preinjection sites). 5 minutes later the drug (1 ml/kg) or the vehicle (50% PEG 400 V/V in distilled water, […]) was administered (i.v.). 10 minutes later an identical pattern of interadermal injections was made on the opposite flank of the animal (post-injection sites). These responses were allowed-to develop for 15 minutes before the animal was sacrificed and a blood sample taken.
Skin sites and plasma samples were counted for 1 minute on a gamma counter an the degree of oedema calculated as μl plasma/skin site. Statistical analysis was done by a paired t-test on the mean of the 3 preinjection site values of μl plasma obtained for FMLP/animal. The percentage inhibition of drug or vehicle was calculated as follow

| Compound | inhibition at 10 µM (human PMN) | IC50 (human PMN) | % inhibition (FMLP-induced skin oedema) |
| --- | --- | --- | --- |
| COC(=O)CCc1c(C(=O)c2ccc(Cl)cc2)oc2cc(NC(=O)C(=O)OC)ccc12 [Example 1, 3-[2-(4-Chlorobenzoyl)-6-(2-methoxy-2-oxo-acetamido)-3-benzofuranyl]propanoic acid, methylester] | 62% | 170 nM | – |
| CCOC(=O)C(=O)Nc1ccc2c(CCC(=O)OC)c(C(=O)c3ccc(C)cc3)oc2c1 [Example 2] | – | – | 47% |
| CCOC(=O)C(=O)Nc1ccc2c(C)c(C(=O)c3ccc(C)cc3)oc2c1 [Example 6] | 67% | 110 nM | – |
| CCOC(=O)C(=O)Nc1ccc2c(CCC(=O)OC)c(C(=O)c3ccc(Cl)cc3)oc2c1 [Example 7] | 86% | 900 nM | – |
| CCOC(=O)C(=O)Nc1ccc2c(CCC(=O)OC)c(C(=O)c3ccncc3)oc2c1 [Example 344] | 81% | 200 nM | – |

Source: US5565488A, “Oxalylamino-benzofuran- and benzothienyl-derivatives” (Bayer Aktiengesellschaft, priority 1994, dated 1996)
